Reference: patent US11066363B2, “Substituted 6,11-dihydro-5H-benzo[B]carbazoles as inhibitors of ALK and SRPK” (Dana-Farber Cancer Institute, Inc., priority 2015, dated 2021)

Legend:
[1] = system: EML4-ALK^G1202R transformed Ba/F3 cells; experiment: Ba/F3 single point inhibition assay (MTS); assay type: cell-based; conditions: single dose 1 μM, 72 hours
Excerpt: (§1) The MTS assay is a colorimetric method for determining the number of viable cells that is based on the bioreduction of MTS by cells to a formazan product that is soluble in cell culture medium and can be detected spectrophotometrically. […] All experimental points were set up in six wells and all experiments were repeated at least three times. […] The curves were fitted using a non-linear regression model with a sigmoidal dose response.

[2] = biological target: SRPK2 (Homo sapiens (Human), UniProt P78362); experiment: SRPK2 inhibitory activity; assay type: biochemical
[3] = system: EML4-ALK wt transformed Ba/F3 cells; experiment: Ba/F3 single point inhibition assay (MTS); assay type: cell-based; conditions: single dose 1 μM, 72 hours
Excerpt: as §1

[4] = biological target: SRPK1 (Homo sapiens (Human), UniProt Q96SB4); experiment: SRPK1 inhibitory activity; assay type: biochemical
[5] = biological target: EML4-ALK C1156Y transformed Ba/F3 cells (Homo sapiens, UniProt Q9UM73, C1156Y, cells depend on it); experiment: Ba/F3 dose escalation MTS viability assay; assay type: cell-based; conditions: 72 hours
Excerpt: as §1
(§2) Untransduced Ba/F3 control was used as a cytotoxicity control.

[6] = biological target: EML4-ALK L1152R transformed Ba/F3 cells (Homo sapiens, UniProt Q9UM73, L1152R, cells depend on it); experiment: Ba/F3 dose escalation MTS viability assay; assay type: cell-based; conditions: 72 hours
Excerpt: as §1, §2

[7] = biological target: EML4-ALK G1202R transformed Ba/F3 cells (Homo sapiens, UniProt Q9UM73, G1202R, cells depend on it); experiment: Ba/F3 dose escalation MTS viability assay; assay type: cell-based; conditions: 72 hours
Excerpt: as §1, §2

[8] = biological target: EML4-ALK^WT transformed Ba/F3 cells (Homo sapiens, UniProt Q9UM73); experiment: Ba/F3 dose escalation MTS viability assay; conditions: read-out: IC50 wt, 72 hours
Excerpt: as §1, §2

[9] = biological target: EML4-ALK G1269A transformed Ba/F3 cells (Homo sapiens, UniProt Q9UM73, G1269A, cells depend on it); experiment: Ba/F3 dose escalation MTS viability assay; assay type: cell-based; conditions: 72 hours
Excerpt: as §1, §2

[10] = biological target: EML4-ALK L1196M transformed Ba/F3 cells (Homo sapiens, UniProt Q9UM73, L1196M, cells depend on it); experiment: Ba/F3 dose escalation MTS viability assay; conditions: read-out: IC50 L1196M, 72 hours
Excerpt: as §1, §2

[11] = biological target: EML4-ALK S1206Y transformed Ba/F3 cells (Homo sapiens, UniProt Q9UM73, S1206Y, cells depend on it); experiment: Ba/F3 dose escalation MTS viability assay; assay type: cell-based; conditions: 72 hours
Excerpt: as §1, §2

## CCc1cc2c(cc1-c1cnn(C)c1)C(C)(C)c1[nH]c3cc(C#N)ccc3c1C2=O [Compound 7, 9-ethyl-6,6-dimethyl-8-(1-methyl-1H-pyrazol-4-yl)-11-oxo-6,11-dihydro-5H-benzo[b]carbazole-3-carbonitrile]
[1]
  Percent viability of untreated control, G1202R: 1%
[2]
  IC50: 12.4 nM
[3]
  Percent viability of untreated control, wt: 1%
[4]
  IC50: 3.01 nM

## CCc1cc2c(cc1-c1cn[nH]c1)C(C)(C)c1[nH]c3cc(C#N)ccc3c1C2=O [Compound 8, 9-ethyl-6,6-dimethyl-11-oxo-8-(1H-pyrazol-4-yl)-6,11-dihydro-5H-benzo[b]carbazole-3-carbonitrile]
[1]
  Percent viability of untreated control, G1202R: 1%
[3]
  Percent viability of untreated control, wt: 0%

## CCc1cc2c(cc1-c1cc[nH]n1)C(C)(C)c1[nH]c3cc(C#N)ccc3c1C2=O [Compound 9, 9-ethyl-6,6-dimethyl-11-oxo-8-(1H-pyrazol-3-yl)-6,11-dihydro-5H-benzo[b]carbazole-3-carbonitrile]
[1]
  Percent viability of untreated control, G1202R: 1%
[3]
  Percent viability of untreated control, wt: 1%
[4]
  IC50: 1.15 nM

## CCc1cc2c(cc1-c1ccoc1)C(C)(C)c1[nH]c3cc(C#N)ccc3c1C2=O [Compound 11, 9-ethyl-8-(furan-3-yl)-6,6-dimethyl-11-oxo-6,11-dihydro-5H-benzo[b]carbazole-3-carbonitrile]
[1]
  Percent viability of untreated control, G1202R: 8%
[3]
  Percent viability of untreated control, wt: 6%

## CCc1cc2c(cc1-c1cccs1)C(C)(C)c1[nH]c3cc(C#N)ccc3c1C2=O [Compound 12, 9-ethyl-6,6-dimethyl-11-oxo-8-(thiophen-2-yl)-6,11-dihydro-5H-benzo[b]carbazole-3-carbonitrile]
[1]
  Percent viability of untreated control, G1202R: 10%
[3]
  Percent viability of untreated control, wt: 12%

## CCc1cc2c(cc1-c1ccncc1)C(C)(C)c1[nH]c3cc(C#N)ccc3c1C2=O [Compound 14]
[1]
  Percent viability of untreated control, G1202R: 5%
[3]
  Percent viability of untreated control, wt: 2%
[4]
  IC50: 2.61 nM

## CCc1cc2c(cc1-c1cccnc1)C(C)(C)c1[nH]c3cc(C#N)ccc3c1C2=O [Compound 15, 9-ethyl-6,6-dimethyl-11-oxo-8-(pyridin-3-yl)-6,11-dihydro-5H-benzo[b]carbazole-3-carbonitrile]
[1]
  Percent viability of untreated control, G1202R: 3%
[3]
  Percent viability of untreated control, wt: 1%

## CCc1cc2c(cc1-c1cncnc1)C(C)(C)c1[nH]c3cc(C#N)ccc3c1C2=O [Compound 16, 9-ethyl-6,6-dimethyl-11-oxo-8-(pyrimidin-5-yl)-6,11-dihydro-5H-benzo[b]carbazole-3-carbonitrile]
[1]
  Percent viability of untreated control, G1202R: 4%
[2]
  IC50: 12.5 nM
[3]
  Percent viability of untreated control, wt: 3%
[4]
  IC50: 2.53 nM

## CCc1cc2c(cc1N1CCC(N(C)C)CC1)C(C)(C)c1[nH]c3cc(C#N)ccc3c1C2=O [Compound 17, 8-(4-(dimethylamino)piperidin-1-yl)-9-ethyl-6,6-dimethyl-11-oxo-6,11-dihydro-5H-benzo[b]carbazole-3-carbonitrile]
[5]
  IC50: 2 nM
[6]
  IC50: 695 nM
[7]
  IC50: 478 nM
[8]
  IC50: 2 nM
[1]
  Percent viability of untreated control, G1202R: 9%
[3]
  Percent viability of untreated control, wt: 2%
[4]
  IC50: > 1000 nM
[9]
  IC50: 3 nM
[10]
  IC50: 10 nM
[11]
  IC50: 2 nM

## CCc1cc2c(cc1N1CCNCC1)C(C)(C)c1[nH]c3cc(C#N)ccc3c1C2=O [Compound 18, 9-ethyl-6,6-dimethyl-11-oxo-8-(piperazin-1-yl)-6,11-dihydro-5H-benzo[b]carbazole-3-carbonitrile]
[1]
  Percent viability of untreated control, G1202R: 7%
[3]
  Percent viability of untreated control, wt: 1%

## CCc1cc2c(cc1N1CCN(C)CC1)C(C)(C)c1[nH]c3cc(C#N)ccc3c1C2=O [Compound 19, 9-ethyl-6,6-dimethyl-8-(4-methylpiperazin-1-yl)-11-oxo-6,11-dihydro-5H-benzo[b]carbazole-3-carbonitrile]
[1]
  Percent viability of untreated control, G1202R: 0.1%
[2]
  IC50: 8.57 nM
[3]
  Percent viability of untreated control, wt: 0.1%
[4]
  IC50: 2.66 nM

## CCc1cc2c(cc1N1CCOCC1)C(C)(C)c1[nH]c3cc(C#N)ccc3c1C2=O [Compound 20, 9-ethyl-6,6-dimethyl-8-morpholino-11-oxo-6,11-dihydro-5H-benzo[b]carbazole-3-carbonitrile]
[1]
  Percent viability of untreated control, G1202R: 4%
[3]
  Percent viability of untreated control, wt: 2%

## CCc1cc2c(cc1C#N)C(C)(C)c1[nH]c3cc(C#N)ccc3c1C2=O [Compound 21, 9-ethyl-6,6-dimethyl-11-oxo-6,11-dihydro-5H-benzo[b]carbazole-3,8-dicarbonitrile]
[1]
  Percent viability of untreated control, G1202R: 28%
[3]
  Percent viability of untreated control, wt: 19%

## CCc1cc2c(cc1[C@@H](O)CO)C(C)(C)c1[nH]c3cc(C#N)ccc3c1C2=O [Compound 22, (R)-8-(1,2-dihydroxyethyl)-9-ethyl-6,6-dimethyl-11-oxo-6,11-dihydro-5H-benzo[b]carbazole-3-carbonitrile]
[1]
  Percent viability of untreated control, G1202R: 39%
[3]
  Percent viability of untreated control, wt: 4%

## CCc1cc2c(cc1[C@H](O)CO)C(C)(C)c1[nH]c3cc(C#N)ccc3c1C2=O [Compound 23, (S)-8-(1,2-dihydroxyethyl)-9-ethyl-6,6-dimethyl-11-oxo-6,11-dihydro-5H-benzo[b]carbazole-3-carbonitrile]
[3]
  Percent viability of untreated control, wt: 4%

## CCc1cc2c(cc1C(=O)O)C(C)(C)c1[nH]c3cc(C#N)ccc3c1C2=O [Compound 24, 3-cyano-9-ethyl-6,6-dimethyl-11-oxo-6,11-dihydro-5H-benzo[b]carbazole-8-carboxylic acid]
[1]
  Percent viability of untreated control, G1202R: 39%
[3]
  Percent viability of untreated control, wt: 57%

## CCc1cc2c(cc1/C=C/CN1CCOCC1)C(C)(C)c1[nH]c3cc(C#N)ccc3c1C2=O [Compound 25, (E)-9-ethyl-6,6-dimethyl-8-(3-morpholinoprop-1-en-1-yl)-11-oxo-6,11-dihydro-5H-benzo[b]carbazole-3-carbonitrile]
[1]
  Percent viability of untreated control, G1202R: 103%
[3]
  Percent viability of untreated control, wt: 93%

## CCc1cc2c(cc1-c1ccc(O)nc1)C(C)(C)c1[nH]c3cc(C#N)ccc3c1C2=O [Compound 26, 9-ethyl-8-(6-hydroxypyridin-3-yl)-6,6-dimethyl-11-oxo-6,11-dihydro-5H-benzo[b]carbazole-3-carbonitrile]
[1]
  Percent viability of untreated control, G1202R: 12%
[3]
  Percent viability of untreated control, wt: 4%

## CCc1cc2c(cc1-c1ccc(N)nc1)C(C)(C)c1[nH]c3cc(C#N)ccc3c1C2=O [Compound 27, 8-(6-aminopyridin-3-yl)-9-ethyl-6,6-dimethyl-11-oxo-6,11-dihydro-5H-benzo[b]carbazole-3-carbonitrile]
[1]
  Percent viability of untreated control, G1202R: 42%
[3]
  Percent viability of untreated control, wt: 12%

## CCc1cc2c(cc1N(C)CCN(C)C)C(C)(C)c1[nH]c3cc(C#N)ccc3c1C2=O [Compound 28, 8-((2 (dimethylamino)ethyl)(methyl)amino)-9-ethyl-6,6-dimethyl-11-oxo-6,11-dihydro-5H-benzo[b]carbazole-3-carbonitrile]
[1]
  Percent viability of untreated control, G1202R: 7%
[3]
  Percent viability of untreated control, wt: 2%

## CCc1cc2c(cc1-c1cnn(CC(=O)NC)c1)C(C)(C)c1[nH]c3cc(C#N)ccc3c1C2=O [Compound 33, 2-(4-(3-cyano-9-ethyl-6,6-dimethyl-11-oxo-6,11-dihydro-5H-benzo[b]carbazol-8-yl)-1H-pyrazol-1-yl)-N-methylacetamide]
[1]
  Percent viability of untreated control, G1202R: 0%
[3]
  Percent viability of untreated control, wt: 0%

## CCc1cc2c(cc1-c1cnn(C(C)(C)C(=O)N(C)C)c1)C(C)(C)c1[nH]c3cc(C#N)ccc3c1C2=O [Compound 35, 2-(4-(3-cyano-9-ethyl-6,6-dimethyl-11-oxo-6,11-dihydro-5H-benzo[b]carbazol-8-yl)-1H-pyrazol-1-yl)-N,N,2-trimethylpropanamide]
[1]
  Percent viability of untreated control, G1202R: 0%
[3]
  Percent viability of untreated control, wt: 0%

## CCc1cc2c(cc1-c1cnn(C(=O)N(C)C)c1)C(C)(C)c1[nH]c3cc(C#N)ccc3c1C2=O [Compound 36, 4-(3-cyano-9-ethyl-6,6-dimethyl-11-oxo-6,11-dihydro-5H-benzo[b]carbazol-8-yl)-N,N-dimethyl-1H-pyrazole-1-carboxamide]
[1]
  Percent viability of untreated control, G1202R: 0%
[2]
  IC50: 23.6 nM
[3]
  Percent viability of untreated control, wt: 0%
[4]
  IC50: 4.75 nM

## CCc1cc2c(cc1-c1ccc(S(=O)(=O)F)cc1)C(C)(C)c1[nH]c3cc(C#N)ccc3c1C2=O [Compound 38, 4-(3-cyano-9-ethyl-6,6-dimethyl-11-oxo-6,11-dihydro-5H-benzo[b]carbazol-8-yl)benzenesulfonyl fluoride]
[4]
  IC50: 41 nM
